Measurements: patent US12502386B2, “Nitrogen-containing heterocyclic compound and use thereof” (SHANGHAI SHIJIANG BIOTECHNOLOGY CO., LTD, priority 2022, dated 2025)

Experiments:
Con-NCI-H82 cell = assay: CellTiter-Glo cell viability, Con-NCI-H82 cell (empty-vector control); format: cell-based, human; settings: Homo sapiens, NCI-H82, NCI-H82 transfected with empty virus vector (control), intracellular ATP, read-out: inhibitory effect on Con-NCI-H82 (IC50)
ov-NNMT NCI-H82 cell = assay: CellTiter-Glo cell viability, ov-NNMT NCI-H82 cell (NNMT overexpressed); format: cell-based, human; settings: Homo sapiens, NCI-H82, NCI-H82 overexpressing NNMT protein, intracellular ATP, read-out: inhibitory effect on OV-NNMT NCI-H82 (IC50)
sh-DNMT1 NCI-H82 cell = assay: CellTiter-Glo cell viability, sh-DNMT1 NCI-H82 cell (DNMT1 knocked down); format: cell-based, human; settings: Homo sapiens, NCI-H82, NCI-H82 with DNMT1 knocked down by shRNA, intracellular ATP, read-out: inhibitory effect on sh-DNMT1 NCI-H82 (IC50)
NCI-H82 = assay: CellTiter-Glo cell viability, tumor cell line NCI-H82; format: cell-based; settings: NCI-H82, 72 h; human small cell lung cancer cell; 3 days of culture; read-out: inhibitory effect on NCI-H82 (IC50)
Method: (§1) Cell viability was detected using the Promega CellTiter-Glo kit, cell viability was determined by directly measuring intracellular ATP content. In the experiment, the IC50 value of the compounds prepared in the Examples of the present invention on various tumor cell lines was detected.
(§2) Each tumor cell was cultured in relevant medium. After cell passage, the gradient diluted compounds prepared in the Examples of the present invention was added. After 3 days of culture, the relevant IC50 (50% inhibiting concentration) was measured. The name, source and culture conditions of each tumor cell line were as follows:
Cell line NCI-H82 (ATCC, No. HTB-175) was cultured in 10% fetal bovine serum-containing RPMI1640 medium (+P/S).

G-401 = assay: CellTiter-Glo cell viability, tumor cell line G-401; format: cell-based; settings: G-401, 72 h; human renal carcinoma Wilms cell; 3 days of culture; read-out: inhibitory effect on G-401 (IC50)
Method: as §1, §2
Cell line G-401 (ATCC, No. CRL-1441) was cultured in 10% fetal bovine serum-containing McCoy's 5a medium (+P/S).

MDA-MB-453 = assay: CellTiter-Glo cell viability, tumor cell line MDA-MB-453; format: cell-based; settings: Homo sapiens, MDA-MB-453, 72 h; breast cancer cell; 3 days of culture; read-out: inhibitory effect on MDA-MB-453 (IC50)
Method: as §1
(§3) Each tumor cell was cultured in relevant medium. After cell passage, the gradient diluted compounds prepared in the Examples of the present invention was added. After 3 days of culture, the relevant IC50 (50% inhibiting concentration) was measured. The name, source and culture conditions of each tumor cell line were as follows: […]

SW48 = assay: CellTiter-Glo cell viability, tumor cell line SW48; format: cell-based; settings: SW48, 72 h; human colon adenocarcinoma cell; 3 days of culture; read-out: inhibitory effect on SW48 (IC50)
Method: as §1, §2
Cell line SW48 (ATCC, No. CCL-231) was cultured in 10% fetal bovine serum-containing Leibovitz's L-15 medium (+P/S).

CFPAC-1 = assay: CellTiter-Glo cell viability, tumor cell line CFPAC-1; format: cell-based; settings: CFPAC-1, 72 h; human pancreatic cancer cell; 3 days of culture; read-out: inhibitory effect on CFPAC-1 (IC50)
Method: as §1, §2
Cell line CFPAC-1 (ATCC, No. CRL-1918) was cultured in 10% fetal bovine serum-containing IMDM medium (+P/S).

786-O = assay: CellTiter-Glo cell viability, tumor cell line 786-O; format: cell-based; settings: Homo sapiens, 786-0, 72 h; clear cell renal cell adenocarcinoma cell; 3 days of culture; read-out: inhibitory effect on 786-O (IC50)
Method: as §1, §2
Cell line 786-0 (ATCC, No. CRL-1932) was cultured in 10% fetal bovine serum-containing RPMI164B medium (+P/S).

GB-1 = assay: CellTiter-Glo cell viability, tumor cell line GB-1; format: cell-based; settings: GB-1, 72 h; human brain glioblastoma cell; 3 days of culture; read-out: inhibitory effect on GB-1 (IC50)
Method: as §1, §2
Cell line GB-1 (JCRB, No. IFO50489) was cultured in 10% fetal bovine serum-containing DMEM medium (+P/S).
(§4) Cell viability was detected using the Promega CellTiter-Glo kit, cell viability was determined by directly measuring intracellular ATP content. In the experiment, the IC50 value of the compounds prepared in the Examples of the present invention on various brain tumor cell lines was detected.

SF-126 = assay: CellTiter-Glo cell viability, tumor cell line SF-126; format: cell-based; settings: SF-126, 72 h, read-out: inhibitory effect on SF-126 (IC50); human glioblastoma multiforme cell; 3 days of culture
Method: as §1, §2
Cell line SF126 (JCRB, No. IFO50286) was cultured in 10% fetal bovine serum-containing EMEM medium (+P/S).
as §4

D341 Med = assay: CellTiter-Glo cell viability, brain tumor cell line D341 Med; format: cell-based; settings: Homo sapiens, 72 h, cerebellar medulloblastoma cell, 3 days of culture, read-out: inhibitory effect on D341 Med (IC50)
Method: as §4, §2
Cell line D341 Med (ATCC, No. HTB-187) was cultured in 20% fetal bovine serum-containing EMEM medium (+P/S).

Kelly = assay: CellTiter-Glo cell viability, brain tumor cell line Kelly; format: cell-based; settings: Homo sapiens, 72 h, brain neuroblastoma cell, 3 days of culture, read-out: inhibitory effect on Kelly (IC50)
Method: as §4, §2
Cell line Kelly (ECACC, No. 92110411) was cultured in 10% fetal bovine serum and 2 mM glutamine-containing RPMI1640 medium.

NB-1 = assay: CellTiter-Glo cell viability, brain tumor cell line NB-1; format: cell-based; settings: Homo sapiens, NB1, 72 h; brain neuroblastoma cell; 3 days of culture; read-out: inhibitory effect on NB-1 (IC50)
Method: as §4, §3

| Compound | IC50 (Con-NCI-H82 cell) [nM] | IC50 (ov-NNMT NCI-H82 cell) [nM] | IC50 (sh-DNMT1 NCI-H82 cell) [µM] | IC50 (NCI-H82) [nM] | IC50 (G-401) [nM] | IC50 (MDA-MB-453) [nM] | IC50 (SW48) [nM] | IC50 (CFPAC-1) [µM] | IC50 (786-O) [µM] | IC50 (GB-1) [µM] | IC50 (SF-126) [µM] | IC50 (D341 Med) [nM] | IC50 (Kelly) [nM] | IC50 (NB-1) [nM] |
| --- | --- | --- | --- | --- | --- | --- | --- | --- | --- | --- | --- | --- | --- | --- |
| COc1ccc2c(c1OCCCCOc1ccccc1)C(C(Cl)(Cl)Cl)N1CCc3cc4c(cc3C1=C2)OCO4 (centres unmarked) [AB35476] | 990 | 3690 | 4.56 | 990 | 1320 | 850 | 1110 | 14.2 | 12.3 | 15.8 | 18.3 | 890 | 1320 | 2460 |
| CCCC1=C2c3cc4c(cc3CCN2C(C2CCCC2)c2c1ccc(OC)c2OC)OCO4 (centres unmarked) [AB35504] | 2220 | 4960 | 6.76 | 2220 | 3120 | 1960 | 3560 | 25.6 | 20.4 | > 30 | > 30 | 1580 | 3030 | 3580 |
| CCCOc1c(OC)ccc2c1C(C(Cl)(Cl)Cl)N1CCc3cc4c(cc3C1=C2)OCO4 (centres unmarked) [AB35506] | 830 | 2660 | 2.52 | 830 | 1270 | 1560 | 2130 | 14.1 | 10.3 | 25.5 | 19.9 | 1660 | 3590 | 3880 |
| COc1ccc2c(c1N1CCC(C)CC1)C(C1CCCC1)N1CCc3cc4c(cc3C1=C2)OCO4 (centres unmarked) [AB35510] | 310 | 1560 | 1.86 | 310 | 1210 | 560 | 1990 | 13.1 | 24.7 | 14.6 | 24.3 | 760 | 2020 | 1680 |
| CCCOc1c(OC)ccc2c1C(C1CCCC1)N1CCc3cc4c(cc3C1=C2)OCO4 (centres unmarked) [AB35512] | 620 | 2420 | 2.32 | 620 | 1330 | 1560 | 2020 | 17.3 | 15.3 | 23.5 | 18.1 | 2010 | 4230 | 1560 |
| COc1ccc2c(c1OCCCc1ccccc1)C(C(Cl)(Cl)Cl)N1CCc3cc4c(cc3C1=C2)OCO4 (centres unmarked) [AB35525] | 510 | 2020 | 3.15 | 510 | 980 | 1680 | 2340 | 16.2 | 14 | > 30 | 19.8 | 960 | 3120 | 1880 |
| C=CCOc1c(OC)ccc2c1C(C(Cl)(Cl)Cl)N1CCc3cc4c(cc3C1=C2)OCO4 (centres unmarked) [AB35534] | 1320 | 3960 | 3.84 | 1320 | 2030 | 1880 | 2450 | 16.9 | 14.3 | 20.2 | 19 | 3120 | 2090 | 1580 |
| CCCOc1c(OC)ccc2c1CN1CCc3cc4c(cc3C1=C2)OCO4 [AB35536] | 520 | 2240 | 2.56 | 520 | 1390 | 940 | 1270 | 9.96 | 15.5 | 16.5 | 23.4 | 1060 | 2560 | 3110 |
| COc1ccc2c(c1OCCCCl)CN1CCc3cc4c(cc3C1=C2)OCO4 [AB35543] | 550 | 2680 | 3.12 | 550 | 1060 | 880 | 1560 | 10.2 | 9.88 | 13.4 | 15.9 | 1680 | 1540 | 2360 |
| COc1ccc2c(c1OCCCF)CN1CCc3cc4c(cc3C1=C2)OCO4 [AB35590] | 1520 | 4680 | 4.04 | 1520 | 2660 | 1980 | 2150 | 15.3 | 13.9 | 22.5 | 17.7 | 2780 | 3160 | 1990 |
